The text below walks through data of US8628961B2, “Small molecule antagonists of phosphatidylinositol-3,4,5-triphosphate (PIP3) and uses thereof” (Tufts University, priority 2010, dated 2014).

A short description of series [1]: Cell death under glucose/glutamine deprivation. It counts as cell-based.
The next series has as its system SUM159 cells. The series is described as follows: Actin polymerization and ruffling/lamellipodia formation after PDGF. It counts as cell-based, human. To be noted: SUM159, concentration-dependent. The method, then: In one set of experiments, the ability of PITs to inhibit actin polymerization and ruffling/lamellipodia formation was examined in SUM159 cells. Cells were serum starved and treated with PITs (25, 50 100 μM) or PIT-1 is (100 μM) for 8 hr, followed by PDGF (100 ng/ml) stimulation for 15 min. Cells were fixed and stained with TRITC-phalloidin to visualize actin fibers, followed by fluorescent microscopy analysis. The number of cells with ruffles/lamellipodia was counted in five random fields.

The next series has as its system apoptosis. In words: Apoptosis features: subG1 DNA content, Western blot of caspase-3 and PARP. The format is cell-based. The source says: Since PI3K/PIP3/Akt signaling plays a critical role in the inhibition of apoptosis (Datta S R et al. (1999) Genes Dev 13:2905-27), the possibility that PITs induce apoptosis was examined. […] Proapoptotic Bcl-2 family members Bax and Bak are important mediators of apoptosis. Wei M C et al. (2001) Science 292:727-30. […] Non-apoptotic mechanisms of cell death may also play some additional, albeit less important, role in PIT-induced killing, as some cell death was still observed in Bax/Bak-deficient cells and in the presence of zVAD.fmk.

In series [2] the test system is SV40-transformed mouse adult lung fibroblasts. The series is described as follows: Viability of Akt1-expressing versus Akt1-3 triple knockout fibroblasts. It counts as cell-based. The text has this:
Shaughnessy J D (2008) Nature 454:172-3; Weinstein I G (2002) Science 297:63-4. Therefore, the possibility that PIT-1 may cause preferential cell death in the cells containing elevated PIP3 levels was examined. […] Li D M et al. (1998) Proc Natl Acad Sci USA 95:15406-11. […] Neshat M S et al. (2001) Proc Natl Acad Sci USA 98:10314-9.

Series [3] deals with differentiated HL-60 cells. The series is described as follows: fMLP-stimulated cell polarization. It counts as cell-based. To be noted: 100 μM, 2 hr. The method, then:
In another set of experiments, the ability of PITs to inhibit fMLP-stimulated HL-60 cell polarization was examined. Differentiated HL-60 cells were treated with PIT-1, PIT-2, PIT-1i-1, or PIT-1i-2, each at 100 μM for 2 hr, followed by stimulation with 100 nM fMLP for 3 min. Actin was stained and analyzed using fluorescent microscopy. The number of the polarized cells was counted in five random fields.

The subject of series [4] is AMPK and ACC phosphorylation, LC3-II. In words: Metabolic stress and autophagy markers. It counts as cell-based, human. The source says: Changes in cell metabolism have emerged in recent years as an important component of PI3K/PIP3/Akt signaling, contributing to the regulation of cell viability and transformation by the PI3K/Akt pathway. Datta S R et al. (1999) Genes Dev 13:2905-27; Elstrom R L et al. (2004) Cancer Res 64:3892-9. Therefore, the possibility that PIT-1 may cause dysregulation of energy homeostasis and induction of the metabolic stress in cancer cells, which may contribute to the PIT-induced cell death, was investigated. […] Hardie D G (2007) Nat Rev Mol Cell Biol 8:774-85. […] Mathew R et al. (2007) Nat Rev Cancer 7:961-7. […] It is also consistent with the established role of Akt as an inhibitor of autophagy. […] Takeuchi H et al. (2005) Cancer Res 65:3336-46.

In a further series the test system is PI3K-PDK1-Akt signaling. The series is described as follows: PI3K-PDK1-Akt signaling in growth factor-stimulated SUM159 cells. The format is cell-based, human.
The next series deals with eIF-1 (Homo sapiens (Human), UniProt P41567). The series is described as follows: NMR HSQC specificity control. It counts as binding.
Series [5] can be described thus: Solubility (aqueous, cell media). The format is physicochemical. The text has this:
The size of the DM-PIT-1-loaded micelles was about 15 nm with a narrow size distribution.

The target of another series is PLC-δ PH domain (Homo sapiens (Human), UniProt P51178). In words: FP PIP2/PLC-δ PH domain binding assay. To be noted: FIG. 5. The method, then: FIG. 5 is a graph depicting specificity and concentration-dependent competitive inhibition of PIP3-PH domain interaction by PIT-1 and PIT-2. 15 nM TMR-conjugated PIP2 were incubated with 100 nM PLC-δ PH domain in the presence or absence of the indicated concentrations of PITs (0-200 μM) for 30 min, followed by FP measurement.
In order to identify compounds that disrupt the interaction between PIP3 and PH domains, a high-throughput fluorescence polarization (FP)-binding assay was developed using recombinant 1-123 amino acid N-terminal fragment of human Akt1 (also referred to herein simply as Akt), encompassing the PH domain (PH123 protein), and fluorescent NBD-labeled PIP3 molecule. The amino acid sequence of human Akt1 is publicly available as, for example, GenBank Accession No. NP_001014432.1 (SEQ ID NO:1), and the corresponding DNA sequence is publicly available as, for example, GenBank Accession No. NM_001014432. Briefly, 5 μM recombinant GST fusion proteins containing 1-123 a.a. N-terminal fragment of human Akt1 (PH 123) or 100 nM 441-551 a.a. region of human PDK1 were incubated with 15 nM TMR-labeled PIP3, PIP2, or PIP5 in buffer containing 50 mM Tris-HCl (pH 7.5), 150 mM NaCl, and 5 mM b-ME for 15 min at room temperature in the dark. FP values were determined using Wallac Victor 3 plate reader. […]

In a further series the test system is U87MG cells. The series is described as follows: Cell death in U87MG cells overexpressing PH domain-deficient constitutively active Akt. The format is cell-based, human. The method, then: To further confirm the mode of action of PIT-1 in the cells is directly related to the inhibition of PIP3/Akt PH domain interaction, induction of cell death in cells overexpressing constitutively active Akt lacking PH domain, but containing a membrane-targeting myristoylation signal, was tested. […] This is not unexpected, considering that another PIT-1 target, PDK1, regulates cell survival through both Akt-dependent and Akt-independent pathways.

Sequence of eIF-1 (P41567 whole entry, species assumed): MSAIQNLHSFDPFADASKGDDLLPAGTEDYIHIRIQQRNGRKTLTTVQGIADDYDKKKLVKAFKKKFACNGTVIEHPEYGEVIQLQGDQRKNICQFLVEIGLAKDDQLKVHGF
Sequence of PLC-δ PH domain (P51178 21-130): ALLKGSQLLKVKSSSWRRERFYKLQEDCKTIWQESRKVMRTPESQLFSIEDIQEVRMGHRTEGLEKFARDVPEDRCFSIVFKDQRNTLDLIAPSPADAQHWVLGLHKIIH

As to `O=C(NC(=S)Nc1cc([N+](=O)[O-])cc(Cl)c1O)c1ccccc1` [PIT-1], in series [1], the “cell death in combination with glucose/glutamine deprivation” value is “dramatic induction of cell death”. Further, the PDGF-induced membrane ruffling entry with SUM159 cells was “efficiently inhibited”. Besides, the “subG1 DNA content in cells” value with apoptosis (P<0.01) is recorded as “significant increase in subG1 DNA content”. Besides, the “cleavage/activation of caspase-3 and processing of PARP” value in the series on apoptosis (Western blot) was “induced the cleavage/activation”. In series [2], the “loss of viability in Akt1-expressing versus Akt1-3 triple knockout fibroblasts” value is “more pronounced (P<0.01)”. Also, in series [3], the “fMLP-stimulated polarization of differentiated HL-60 neutrophils” value is “efficient inhibition”. For the same compound, in series [4], the “phosphorylation of ACC” value is “Increased phosphorylation” and the “phosphorylation of AMPK” value is on record as “significant increase in the phosphorylation”. Also, the “expression of autophagic marker LC3-II” value in series [4] (U87MG cells) is listed as “prominently increased the expression”. The “PI3K-PDK1-Akt signaling in SUM159 cells” value with PI3K-PDK1-Akt signaling is recorded as “significantly suppressed PI3K-PDK1-Akt signaling”. Moreover, the “changes in HSQC spectra of eIF-1” value at eIF-1 is recorded as “did not elicit any changes”. In [5], the aqueous solubility result was “limited aqueous solubility”. Moreover, the “inhibition of interaction between PIP2 and PH domain of PLC-δ” value on PLC-δ PH domain is listed as “failed to inhibit”. Also, in the series with U87MG cells, the “effect of overexpressed PH domain-deficient Akt on killing of U87MG cells” value is listed as “significantly protected U87MG cells from PIT-1 killing”.
